# Assay results reported in patent US20250298028A1, “METHOD FOR SCREENING DRUGS FOR TREATING MULTIPLE-VARIANT CORONAVIRUS DISEASE” (KOREA UNIVERSITY RESEARCH AND BUSINESS FOUNDATION, priority 2022, published 2025).
# Legend:
# [1] = target: T1, main protease (M^pro) of SARS-COV-2 (Severe acute respiratory syndrome coronavirus 2, UniProt P0DTD1); assay: biochemical
# [2] = target: T1, main protease (M^pro) of SARS-COV-2; assay: TEM observation of the reaction of MCAP-AuNP with M^pro after M^pro inhibitor treatment; format: biochemical; conditions: TEM images, FIG. 10B-10D
SMILES,IC50 [1] [µM],"activity of M^pro after M^pro inhibitor treatment (effect on MCAP-AuNP, TEM image) [2]"
COc1ccc([C@@H]2CC(=O)c3c(O)cc(O)cc3O2)cc1O [hesperetin],43.1,inhibited
CC(=O)N[C@@H](CC(C)C)C(=O)N[C@@H](CC(C)C)C(=O)N[C@H](C=O)CCCNC(=N)N [leupeptin],28.6,inhibited
Cc1cccc(C)c1OCC(=O)N[C@@H](Cc1ccccc1)[C@@H](O)C[C@H](Cc1ccccc1)NC(=O)[C@H](C(C)C)N1CCCNC1=O [lopinavir],10.7,inhibited
